# According to patent publication US7989004B2, “Antitubercular extracts of Salicornia brachiata” (Council of Scientific and Industrial Research, priority 2004, dated 2011):
# Test system: M. tuberculosis H37Rv
# Experiment: BACTEC method of in-vitro screening (growth index, radiometric 7H12 broth)
# Type: cell-based
# Conditions: 100 μg/mL
smiles,measurement,value
OC[C@H]1O[C@@](CO)(O[C@H]2O[C@H](CO)[C@@H](O)[C@H](O)[C@H]2O)[C@@H](O)[C@@H]1O [sucrose],inhibition of growth,no inhibition
